Source: US4716153A, “Stable oral preparation of macrolide antibiotics and method for stabilizing the same” (priority 1982, dated 1987)

Key:
Assay type in all cases: physicochemical
[1] = Stability in Japan Pharmacopoeia 1st solution (pH 1.2) at 37° C., with or without stabilizer (TLC densitometry, 232 nm)
Description: The stabilizers showing pH 3-10 used in the invention may be substances having a buffering or antacid action and showing pH 3-10, preferably 5.5-6.5. These are, for example, neutral amino acids or their basic salts, basic salts of acidic amino acids, basic amino acids,basic salts of organic carboxylic acids,basic salts of polybasic organic carboxylic acids, basic salts of uronic acid or inorganic salt antacids. The neutral amino acids or basic salts thereof include glycine, alanine, aminobutyric acid, proline, leucine, isoleucine, methionine, threonine, serine, valine, or their aluminium salts, for example aluminium glycinate. Among these, glycine, alanine and aluminium glycinate, both of which show pH 5.5-6.5, are preferable. The basic salts of acidic amino acid include monobasic salts such as a monosodium, monopotassium or magnesium salt of glutaminic or aspartic acid. Among these monobasic salts, monosodium glutamate or monosodium aspartate is preferable. The basic amino acids include arginine, glutamine, asparagine, citrulin, tryptophane and histidine. Especially, histidine is preferable. The basic salts of monobasic organic carboxylic acid include basic salts such as sodium, potassium, magnesium or aluminium salts of saturated monobasic organic carboxylic acids such as acetic acid and propionic acid, of unsaturated monobasic organic acids such as acrylic acid, crotonic acid and vinylacetic acid, and of other monobasic organic acids such as lactic acid, pyruvic acid, glyceric acid and acetoacetic acid. The basic salts of polybasic organic carboxylic acid include mono-, di- or tri-sodium, potassium, magnesium, calcium or aluminium salts of saturated polybasic organic carboxylic acids such as oxalic acid, malonic acid, succinic acid, glutaric acid, adipic acid and pimelic acid, of unsaturated polybasic organic carboxylic acids such as maleic acid and fumaric acid, and of other polybasic organic carboxylic acids such as meso-oxalic acid, malic acid, oxalacetic acid and citric acid. Among these, trisodium citrate is preferable. The basic salts of uric acids include sodium salts of glucuronic acid, galacturonic acid or their polymers such as alginic acid or peptic acid and dihydroxyaluminium aminoacetate sodium alginate. The inorganic salt antacids include calcium hydrogenphosphate, disodium hydrogenphosphate, dipotassium hydrogenphosphate, magnesium hydrogenphosphate, calcium carbonate, sodium carbonate, potassium carbonate, sodium hydrogen carbonate, aluminium carbonate, magnesium carbonate, potassium metasilicate, magnesium aluminate metasilicate, sodium metasilicate, synthetic aluminium silicate, magnesium silicate, aluminium silicate, magnesium aluminate silicate, magnesium-bismuth aluminate silicate, magnesium oxide, alumina-magnesium hydroxide, magnesium peroxide, magnesium hydroxide, aluminium hydroxide, synthetic hydrotarphite, aluminium phosphate and others. Especially, calcium phosphate and magnesium phosphate are preferable. Each of these stabilizers may be used alone or in the form of a mixture. […] A method for stabilization of 16-membered ring macrolide antibiotics of the present invention will be described in detail. The afore-mentioned various 16-membered ring macrolide antibiotics, for example 9-hydroxy 16-membered ring macrolides such as midecamycin, 3"-propionylleucomycin A5 and josamycin and 9-acyloxy 16-membered ring macrolides such as 9,3"-diacetylmidecamycin and 9-propionyljosamycin show extremely poor residual rates when added to an acidic solution of the Japanese Pharmacopoeia lst liquid (pH 1.2) and allowed to stand. That is, the 9hydroxy 16-membered ring maclorides decompose in a short time to by-produce their iso, demycarosyl and/or isodemycarosyl forms. The 9-acyloxy 16-membered ring macrolides decompose, too, to by-produce their 9-deacyl, 9-deacyl-iso, demycarosyl, 9-deacyl-demycarosyl or 9-deacyl-iso-demycarosyl forms. […]

[2] = Elution rate in aqueous solutions of various pH and physiological saline solution
Experimental: After 40 ml of Japan Pharmacopoeia 1st solution (pH 1.2) was placed in a vessel whose temperature was kept constant in a thermostat at 37° C., 200 mg of TMS-19-Q was added and the mixture was stirred by a magnetic stirrer. […] Then, Japan Pharmacopoeia 2nd solution were mixed with the 1st solution, and by using aqueous solutions whose pH values were adjusted to be 2, 3, 4 and 5 and a physiological saline solution, respectively, elution rate of each thereof was measured.
To 40 ml of Japan Pharmacopoeia 1st solution (pH 1.2), 120 ml of water was added, and after the solution was kept in a constant temperature bath controlled at 37° C., 200 mg of midecamycin was added, and the mixture was stirred by a magnetic stirrer. Then, 5 ml aliquots of the solution were sampled in a lapse of time (at 5 minutes, 15 minutes and 30 minutes), and absorbances were measured (wavelength: 232 nm) and elution rate were calculated. Then, Japan Pharmacopoeia 1st solution and Japan Pharmacopoeia 2nd solution were mixed to prepare aqueous solutions whose pH values were adjusted to be 2, 3, 4 and 5, respectively. By using these solutions and physiological saline solution, the elution rates were calculated following the same procedures as those indicated above.
By following the same procedures and under the same conditions as those of Example 31, elution rates of 9-propionyljosamycin were measured.
By following the same procedures and under the same conditions as those of Example 31, elution rates of josamycin were measured.
In addition to the conditions of Example 31, Japan Pharmacopoeia 1st solution and Japan Parmacopoeia 2nd solution were mixed to prepare an aqueous solution having pH of 2.5, and following the same procedures as those of Example 31, elution rates of 9,3"-diacetylmidecamycin were measured.

[3] = Elution rate of TMS-19-Q with glycine and citric or tartaric acid in diluted physiological saline solution; conditions: for elution rate with 40 mg or more of citric acid: citric acid 40 mg or more, saline + water
Experimental: To 40 ml of physiological saline solution 120 ml of water was added, and after the solution was placed in a vessel whose temperature was kept constant in a thermostat at 37° C., 200 mg of TMS-19-Q, 340 mg of glycine and 0-80 mg of citric acid were added, and the mixture was stirred by a magnetic stirrer. Then sampling thereof was conducted in a lapse of time (at 5 minutes, 15 minutes and 30 minutes) to observe absorbance (wavelength: 232 nm) and elution rate was calculated.
To 40 ml of physiological saline solution 120 ml of water was added, and after the solution was kept in a vessel whose temperature was kept constant in a thermostat controlled at 37° C., 200 mg of TMS-19-Q, 340 mg of glycine and 0-80 mg of tartaric acid were added, and the same procedures as those of Example 27 were followed to examine the elution rate of TMS-19-Q.

**Q.** For `CCCC(=O)OC1C(C)OC(OC2C(C)OC(OC3C(CC=O)CC(C)C(O)/C=C/C=C/CC(C)OC(=O)CC(O)C3OC)C(O)C2N(C)C)CC1(C)OC(=O)CC` (centres unmarked) [TMS-19-Q, 3"-propionyl leucomycin A5], which “improvement of stability compared with control, 30 minutes” value ([1]; 150 mg of glycine, value at 30 minutes) is on record?
**A.** The value was 30%.

**Q.** What about the “stability in 1st solution (in words)” value ([1]; 1st solution pH 1.2, no stabilizer) of the same molecule?
**A.** The value was “extremely unstable”.

**Q.** What about the “stability with tri-sodium citrate (in words)” value ([1]; 150-300 mg of tri-sodium citrate, 1st solution) of the same molecule?
**A.** The value was “very much enhanced”.

**Q.** What about the “stability with calcium phosphate (in words)” value ([1]; 150-400 mg of calcium phosphate, 1st solution) of the same molecule?
**A.** Its value is “very much enhanced”.

**Q.** And the “stability with glycine (in words)” value ([1]; 150-900 mg of glycine, 1st solution)?
**A.** Its value is “stabilized well”.

**Q.** And the “stability with L-aspartic acid monosodium salt (in words)” value ([1]; 200-500 mg of Asp.Na, 1st solution)?
**A.** The value was “very much enhanced”.

**Q.** What about the “stability with monosodium glutamate (in words)” value ([1]; 200-500 mg of Glu.Na, 1st solution) of the same molecule?
**A.** The value was “very much enhanced”.

**Q.** What about the degraded at 0.5 h ([1]; jp 1st solution, 1st solution pH 1.2, 37° C., 30 minutes, no stabilizer, read-out: decomposites (balance), 30 minutes) of the same molecule?
**A.** Its degraded at 0.5 h is 39.5%.

**Q.** What about the remaining at 0.5 h ([1]; jp 1st solution, 1st solution pH 1.2, 37° C., 30 minutes, no stabilizer, read-out: residual amount after contact with 1st solution, 30 minutes) of the same molecule?
**A.** The remaining at 0.5 h was 60.5%.

**Q.** What about the degraded at 1 h ([1]; jp 1st solution, 1st solution pH 1.2, 37° C., 60 minutes, no stabilizer, read-out: decomposites (balance), 60 minutes) of the same molecule?
**A.** The degraded at 1 h was 41.4%.

**Q.** What about the remaining at 1 h ([1]; jp 1st solution, 1st solution pH 1.2, 37° C., 60 minutes, no stabilizer, read-out: residual amount after contact with 1st solution, 60 minutes) of the same molecule?
**A.** Its remaining at 1 h is 58.6%.

**Q.** And the “stability with a larger amount of glycine (in words)” value ([1]; larger amount of glycine (up to 900 mg))?
**A.** The value was “hardly decomposed”.

**Q.** What about the “elution rate, pH 1.2, 2 and 3” value ([2]; initial pH 1.2, 2 and 3, after 15-minute stirring, 37° C.) of the same molecule?
**A.** Its value is no less than 90%.

**Q.** And the “elution rate, pH 4 and 5” value ([2]; initial pH 4 and 5, after 15-minute stirring, 37° C.)?
**A.** The value was 40-45%.

**Q.** And the “elution rate in pH 1.2-3 acidic aqueous solution (summary)” value ([2]; pH 1.2-3, general description)?
**A.** The value was “more than 95%”.

**Q.** What about the “elution rate in pH 4-5 weak acidic aqueous solution (summary)” value ([2]; pH 4-5, general description) of the same molecule?
**A.** The value was “less than 50%”.

**Q.** And the “elution rate, physiological saline solution” value ([2]; physiological saline solution, after 15-minute stirring, 37° C.)?
**A.** The value was 10%.

**Q.** And the “elution rate in physiological saline solution (summary)” value ([2]; physiological saline solution, general description)?
**A.** The value was “less than 15%”.

**Q.** And the “time within which elution was nearly completed” value ([2]; solutions whose pH is equal to or less than 4.5)?
**A.** The value was no more than 15 min.

**Q.** And the “elution rate with 0, 10 or 20 mg of citric acid” value ([3]; 200 mg potency, 340 mg glycine, pH 5.87, 5.51, 5.18)?
**A.** Its value is “less than 60%”.

**Q.** What about the “elution rate with 20 mg or 10 mg of citric acid” value ([3]; 340 mg glycine, citric acid 20 mg or 10 mg, after 15-minute stirring) of the same molecule?
**A.** The value was 45-55%.

**Q.** And the “elution rate with 40 mg or more of citric acid” value ([3]; 340 mg glycine)?
**A.** The value was no less than 95%.

**Q.** And the “elution rate with 40 mg or more of citric acid” value ([3]; 340 mg glycine, listed as 3"-propionylleucomycin A5)?
**A.** The value was “more than 95%”.

**Q.** And the “elution rate with 0 mg of citric acid” value ([3]; 340 mg glycine, no citric acid, after 15-minute stirring)?
**A.** Its value is 10%.

**Q.** What about the “elution rate with 0 mg of tartaric acid” value ([3]; 340 mg glycine, no tartaric acid, after 15-minute stirring) of the same molecule?
**A.** Its value is 10%.

**Q.** What about the “elution rate with 20 mg or 10 mg of tartaric acid” value ([3]; 340 mg glycine, tartaric acid 20 mg or 10 mg, after 15-minute stirring) of the same molecule?
**A.** The value was 40-55%.

**Q.** What about the “elution rate with 40 mg or more of tartaric acid” value ([3]; 340 mg glycine, tartaric acid 40 mg or more, value at 15 minutes) of the same molecule?
**A.** Its value is no less than 95%.

**Q.** And the “time within which elution was nearly completed (citric acid)” value ([3]; citric acid, solutions whose pH is equal to or less than 4.23)?
**A.** The value was no more than 15 min.

**Q.** What about the “time within which elution was nearly completed (tartaric acid)” value ([3]; tartaric acid, solutions whose pH is equal to or less than 4.09) of the same molecule?
**A.** Its value is no more than 15 min.
